The values below are quoted from earlier work in patent US6468258B1, “Plastic compositions including vitamin E for medical containers and methods for providing such compositions and containers” (Baxter International Inc., priority 1997, dated 2002).

For the data set, the system named is red blood cells. As to conditions: Vitamin E added directly to red blood cells; as reported in U.S. Pat. No. 5,037,419.

For the substance Vitamin E, the hemolysis result was “lower hemolysis”.
